Experimental findings from PubChem BioAssay (NCI) are described below.

Each structure is given as a SMILES string.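 How tested: cells in 96-well plates exposed to compound for 48 hours at five concentrations. GI50 marks 50% less growth. At the TGI there is no net growth.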 Bounds are passed on as bounds.

The first assay has as its system HOP-62 NSCLC. The assay is described as follows: inhibition of tumour cell growth, NCI panel, 48 h.
Compound `CC(=O)O[C@H]1C#C/C=C\C#CC[C@@H]2C(=O)N[C@@H]12` returned a TGI greater than 72.6 µM.
Still for that read-out and setting: with `Cc1ccc2nc(Cl)c(/C=N/N3C(=O)/C(=C/c4ccccc4S)N=C3c3ccccc3)cc2c1` the figure was greater than 100 µM; with `CCCSc1ccc2[nH]c(/N=C/c3ccco3)cc2c1`, greater than 100 µM.

For another assay, the system named is KM12 colon. The assay is described as follows: inhibition of tumour cell growth, NCI panel, 48 h.
Compound `CCC1(C(=O)OC(C)(C)C)OC12C(C)CCCC2C` (centres undefined) came in with a TGI greater than 100 µM.
On the same count and under the same terms, to `Cc1ccc(-c2cc(N)n(-c3nc4c(c(=O)n(C)c(=O)n4C)n3C)n2)cc1` belongs greater than 100 µM; to `CN(C)c1ccc(C2SCC(=O)N2NS(=O)(=O)c2cccc(C(=O)O)c2)cc1` (centres undefined), greater than 100 µM; to `CC1CCOc2ccc(cc2)C=Nc2ccc(cc2)CCc2ccc(cc2)N=Cc2ccc(cc2)OCC1` (centres undefined), greater than 100 µM.
Still for that read-out and setting: to `COC(=O)[C@H](Cc1ccccc1)NC(=O)[C@H](Cc1ccccc1)NC(=O)[C@@H]1CCCN1C(=O)N[C@H]1C2C=CC(C2)C1C(=O)N1CCC[C@H]1C(=O)N[C@@H](C)C(=O)N[C@H](C(=O)OC)C(C)C` (some centres undefined) belongs greater than 100 µM; to `O=C1c2ccccc2-c2nc(-c3cccc([N+](=O)[O-])c3)nnc21`, greater than 100 µM; to `CNC(=O)Oc1ccc(-c2cn3cc(OC(=O)NC)ccc3n2)cc1`, greater than 100 µM.
The same measure, in the same setting: to `CC(=O)N1N=C(c2ccc3ccccc3c2O)CC1C(=O)c1ccco1` (centres undefined) belongs 44.8 µM; to `N#Cc1nc(-c2cccs2)oc1N`, greater than 100 µM.
`O=C(OCC1OC2OC(c3ccccc3)(n3ccc4c([N+](=O)[O-])ccnc43)OC2C1OC(=O)c1ccccc1)c1ccccc1` (centres undefined): the TGI is greater than 100 µM.
Still for that read-out and setting: to `OCC1OC(n2cnc3c(Cl)nc(Nc4ccccc4)nc32)CC1O` (centres undefined) belongs greater than 100 µM.
For `C[C@]12CCc3nc(Nc4ccccc4)sc3C1=CC[C@@H]1[C@@H]2CC[C@]2(C)/C(=N/NC(N)=S)CC[C@@H]12`, the GI50 was 6.17 µM and the TGI was greater than 100 µM.
In turn, `NCCSc1nc2ccccc2c(=O)n1-c1ccccc1` displayed a TGI greater than 100 µM.
On the same count and under the same terms, with `COC(=O)C1=CC(=O)OC1(OO)c1ccccc1` (centres undefined) the figure was greater than 100 µM.
Same read-out and setting: with `Cc1cc(C2(O)C=C(C(C)(C)C)C(=O)C(C(C)(C)C)=C2)c(C)cc1C1(O)C=C(C(C)(C)C)C(=O)C(C(C)(C)C)=C1` the figure was greater than 100 µM.
Same read-out and setting: with `CC1=NN(c2ccc(S(=O)(=O)O)cc2)C2(C1)SCC(=O)N2c1nc2ccccc2s1` (centres undefined) the figure was greater than 100 µM; with `CC(=O)O[C@H]1C#C/C=C\C#CC[C@@H]2C(=O)N[C@@H]12`, greater than 100 µM.
The compound `Cc1ccc2nc(Cl)c(/C=N/N3C(=O)/C(=C/c4ccccc4S)N=C3c3ccccc3)cc2c1` showed a TGI greater than 100 µM.
Still for that read-out and setting: with `CCCSc1ccc2[nH]c(/N=C/c3ccco3)cc2c1` the figure was greater than 100 µM.

The subject of the next assay is NCI-H226 lung. As to the kind of experiment: inhibition of tumour cell growth, NCI panel, 48 h.
Take `CCC1(C(=O)OC(C)(C)C)OC12C(C)CCCC2C` (centres undefined): the TGI was greater than 100 µM.
Consider `Cc1ccc(-c2cc(N)n(-c3nc4c(c(=O)n(C)c(=O)n4C)n3C)n2)cc1`, for which the TGI was greater than 100 µM.
Still for that read-out and setting: with `CN(C)c1ccc(C2SCC(=O)N2NS(=O)(=O)c2cccc(C(=O)O)c2)cc1` (centres undefined) the figure was greater than 100 µM; with `CC1CCOc2ccc(cc2)C=Nc2ccc(cc2)CCc2ccc(cc2)N=Cc2ccc(cc2)OCC1` (centres undefined), greater than 100 µM.
On the same count and under the same terms, with `COC(=O)[C@H](Cc1ccccc1)NC(=O)[C@H](Cc1ccccc1)NC(=O)[C@@H]1CCCN1C(=O)N[C@H]1C2C=CC(C2)C1C(=O)N1CCC[C@H]1C(=O)N[C@@H](C)C(=O)N[C@H](C(=O)OC)C(C)C` (some centres undefined) the figure was greater than 100 µM; with `O=C1c2ccccc2-c2nc(-c3cccc([N+](=O)[O-])c3)nnc21`, 35.9 µM; with `CNC(=O)Oc1ccc(-c2cn3cc(OC(=O)NC)ccc3n2)cc1`, greater than 100 µM.
Same read-out and setting: to `CC(=O)N1N=C(c2ccc3ccccc3c2O)CC1C(=O)c1ccco1` (centres undefined) belongs greater than 100 µM; to `N#Cc1nc(-c2cccs2)oc1N`, greater than 100 µM.
In turn, `O=c1[nH]/c(=C/c2ccc(OCc3ccccc3)cn2)c(=O)[nH]/c1=C/c1ccc(O)cc1` yielded a TGI greater than 100 µM.
Still for that read-out and setting: with `O=C(OCC1OC2OC(c3ccccc3)(n3ccc4c([N+](=O)[O-])ccnc43)OC2C1OC(=O)c1ccccc1)c1ccccc1` (centres undefined) the figure was greater than 100 µM; with `OCC1OC(n2cnc3c(Cl)nc(Nc4ccccc4)nc32)CC1O` (centres undefined), greater than 100 µM.
For `C[C@]12CCc3nc(Nc4ccccc4)sc3C1=CC[C@@H]1[C@@H]2CC[C@]2(C)/C(=N/NC(N)=S)CC[C@@H]12`, the GI50 is 2.07 µM and the TGI came to 5.71 µM.
As to `NCCSc1nc2ccccc2c(=O)n1-c1ccccc1`, the TGI is greater than 100 µM.
The same measure, in the same setting: with `COC(=O)C1=CC(=O)OC1(OO)c1ccccc1` (centres undefined) the figure was greater than 100 µM; with `Cc1cc(C2(O)C=C(C(C)(C)C)C(=O)C(C(C)(C)C)=C2)c(C)cc1C1(O)C=C(C(C)(C)C)C(=O)C(C(C)(C)C)=C1`, greater than 100 µM; with `CC1=NN(c2ccc(S(=O)(=O)O)cc2)C2(C1)SCC(=O)N2c1nc2ccccc2s1` (centres undefined), greater than 100 µM.
`CC(=O)O[C@H]1C#C/C=C\C#CC[C@@H]2C(=O)N[C@@H]12` came in with a TGI of 90.8 µM.

Another assay relates to NCI-H460 lung. The assay is described as follows: inhibition of tumour cell growth, NCI panel, 48 h.
As to `CCC1(C(=O)OC(C)(C)C)OC12C(C)CCCC2C` (centres undefined), the TGI is greater than 100 µM.
In the case of `Cc1ccc(-c2cc(N)n(-c3nc4c(c(=O)n(C)c(=O)n4C)n3C)n2)cc1`, the TGI is greater than 100 µM.
Still for that read-out and setting: to `CN(C)c1ccc(C2SCC(=O)N2NS(=O)(=O)c2cccc(C(=O)O)c2)cc1` (centres undefined) belongs greater than 100 µM; to `CC1CCOc2ccc(cc2)C=Nc2ccc(cc2)CCc2ccc(cc2)N=Cc2ccc(cc2)OCC1` (centres undefined), greater than 100 µM; to `COC(=O)[C@H](Cc1ccccc1)NC(=O)[C@H](Cc1ccccc1)NC(=O)[C@@H]1CCCN1C(=O)N[C@H]1C2C=CC(C2)C1C(=O)N1CCC[C@H]1C(=O)N[C@@H](C)C(=O)N[C@H](C(=O)OC)C(C)C` (some centres undefined), greater than 100 µM.
The same measure, in the same setting: to `O=C1c2ccccc2-c2nc(-c3cccc([N+](=O)[O-])c3)nnc21` belongs 24.8 µM; to `CNC(=O)Oc1ccc(-c2cn3cc(OC(=O)NC)ccc3n2)cc1`, greater than 100 µM.
